Molecular target: CREB (Mus musculus, UniProt Q01147)
Assay: chromatin immunoprecipitation, CREB binding to c-fos promoter
Format: cell-based
Details: 100 μM compound with lipofectamine, 24 h, NIH3T3 cells

CREB, sequence (Q01147 whole entry): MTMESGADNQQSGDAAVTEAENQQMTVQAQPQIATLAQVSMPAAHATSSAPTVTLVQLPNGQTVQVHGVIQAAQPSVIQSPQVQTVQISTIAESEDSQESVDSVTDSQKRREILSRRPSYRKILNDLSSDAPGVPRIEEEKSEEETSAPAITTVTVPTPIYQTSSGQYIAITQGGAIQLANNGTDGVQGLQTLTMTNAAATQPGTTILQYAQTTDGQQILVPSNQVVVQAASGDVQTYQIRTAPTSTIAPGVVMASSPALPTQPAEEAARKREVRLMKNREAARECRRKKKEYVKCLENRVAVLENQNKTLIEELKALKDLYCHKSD

O=S(=O)(O)c1cc[c]([Sb](=[O])([OH])[OH])cc1 [NSC13746]
% reduction in CREB DNA binding at 100 μM: 30%

Reference: article PMC7316388 (European journal of cell biology, 2010)
